Results taken from US4371544A, “Pharmaceutical composition containing 1,1,3,5-substituted biuret compound” (Taiho Pharmaceutical Company Limited, priority 1979, dated 1983).

Tests used:
[1] = tested on: ddy strain of male mice; assay: Acute toxicity (oral, mice, 7 days observation); format: in vivo
Protocol: (§1) Next, several tests for determining the pharmacological properties, in that acute toxicity, anti-pyretic activity, analgesic activity and anti-inflammatory activity of the present 1,1,3,5-substituted biuret compounds of the formula (1) were conducted and the test results are shown in Table (2). In the tests, each compounds to be tested was used as a suspension in 0.25% carboxymethylcellulose solution. Methods for testing are explained as follows:
The ddy strain of male mice (body weight, 20-25 g) were used as test animals. The mice were fasted overnight and the compound to be tested was administered orally. […] The lethal dose (mg/kg, body weight) of the test compound was determined in connection with the death number of mice/the number of mice tested. In Table 2, the values indicated with Δ marks are 50% lethal dose, LD50 (mg/kg, body weight).

[2] = tested on: ddy strain of male mice; assay: Analgesic activity, acetic acid-induced stretching method; format: in vivo, mouse (ddy); details: for inhibition in vivo at 100 mg/kg / inhibition in vivo at 200 mg/kg: read-out: Analgesic activity, acetic acid-induced stretching method, inhibitory ratio
Protocol: as §1
According to the method reported by Koster et al., [Fed. Proc., Vol. 18, pp. 412 (1959)], the ddy strain of male mice (body weight, 20-25 g) were used as test animals. The mice were fasted overnight, 100 mg/kg body weight of the test compound was administered orally, then 1 hour after the administration, 0.2 ml of 0.7% acetic acid solution was injected intraperitoneally. The acetic acid-induced stretching symptom of mouse was observed. Analgesic activity of the test compound was calculated as the inhibitory ratio (%). In Table 2, the values in parentheses show the data obtained from the test by using the dosage other than 100 mg/kg body weight. Further, the values indicated with Δ marks show 50% effective dose, ED50 (mg/kg body weight).

[3] = tested on: ddy strain of male mice; assay: Analgesic activity, Haffner method (morphine threshold dose, clamp); format: in vivo, mouse (ddy); details: for Analgesic activity, Haffner method, inhibitory ratio / inhibition in vivo at 100 mg/kg: 100 mg/kg oral, 45 minutes before morphine hydrochloride; for ED50 / inhibition in vivo at 100 mg/kg: Mus musculus; for ED50: oral, Δ mark, range in parentheses; for inhibition in vivo at 100 mg/kg: read-out: Analgesic activity, Haffner method, inhibitory ratio
Protocol: as §1
According to the modified method reported by Fujimura et. al., [Bulletin of the Institute for Chemical Research, Kyoto University, No. 25, pp. 36 (1951)], the ddy strain of male mice (body weight, 20-25 g) were used as test animals. The mice were fasted overnight, 100 mg/kg body weight of the test compound was administered orally, then 45 minutes after the administration, the threshold amount (1.5-2.5 mg/kg body weight) of morphine hydrochloride was injected subcutaneously. Then 1-hour pain reaction of the mouse caused by a clamp was observed. Analgesic activity of the test compound was calculated as the inhibitory ratio (%). In Table 2, the values in parentheses show the data obtained from the test by using the dosage other than 100 mg/kg body weight. Further, the values indicated with Δ marks show 50% effective dose, ED50 (mg/kg body weight).

[4] = tested on: Wistar strain of male rats; assay: Anti-pyretic activity (dry-yeast-induced fever); format: in vivo, rat (Wistar); details: oral (dose not given), up to 4 hours after administration
Protocol: as §1
According to the method reported by Tanabe [Folia Pharmacologia Japonica, Vol. 73, pp. 803 (1977)], the Wistar strain of male rats (150-180 g, body weight) were used as test animals. The rats were fasted overnight, and 1 ml/100 g (body weight) of 10% dry-yeast suspension were subcutaneously injected on the back of the rats. Five hours after the injection, the test compound was administered orally, then the body temperature of the rat was measured at time sequences. Anti-pyretic activity of the test compound was determined as the FI (febril index) by integrating pyrogenetic curve up to 4 hours after the administration of the test compound with time, and indicated as inhibitory ratio (%) shown by the following formula, [formula]

[5] = 100 mg/kg oral, 1 hour before acetic acid

Compound | Acute toxicity: death number of mice/number of mice tested ([1]; 2000 mg/kg oral) | Acute toxicity: death number of mice/number of mice tested ([1]; 1000 mg/kg oral) | Analgesic activity, acetic acid-induced stretching method, inhibitory ratio [2, 5] [%] | Analgesic activity, Haffner method, inhibitory ratio [3] [%] | Anti-pyretic activity, inhibitory ratio (febril index) [4] [%] | other results
CN(C)C(=O)NC(=O)Nc1ccccc1F [Compound No. 2, 1,1-Dimethyl-5-(2-fluorophenyl)biuret] | 0/4 |  |  |  |  | inhibition in vivo at 100 mg/kg ([2]; Mus musculus, 100 mg/kg oral, 1 hour before acetic acid): 40%
CN(C)C(=O)NC(=O)Nc1ccc(Cl)cc1 [Compound No. 3] | 0/4 |  |  |  |  | inhibition in vivo at 100 mg/kg ([2]; Mus musculus, po): 50%
CN(C)C(=O)N(C)C(=O)Nc1ccccc1F [Compound No. 7, 1,1,3-Trimethyl-5-(2-fluorophenyl)biuret] | 4/4 | 1/4 | 62.5 | 75 | 76 | 
Cc1ccc(NC(=O)N(C)C(=O)N(C)C)cc1C [Compound No. 30, 1,1,3-Trimethyl-5-(3,4-dimethylphenyl)biuret] | 1/4 |  |  |  | 31 | ED50 [3]: 86 mg/kg
CCN(C)C(=O)N(C)C(=O)Nc1ccccc1 [Compound No. 45, 1-ethyl-1,3-dimethyl-5-phenylbiuret] |  |  |  |  | 49 | Analgesic activity, acetic acid-induced stretching method, inhibitory ratio ([2]; 80 mg/kg oral): 50%; ED50 [3]: 100 mg/kg
CN(C)C(=O)N(C)C(=O)Nc1ccc(F)cc1 [compound 8, 1,1,3-Trimethyl-5-(4-fluorophenyl)biuret] |  |  | 87.5 | 62.5 | 61 | 
CN(C)C(=O)N(C)C(=O)Nc1ccccc1Cl [compound 10, 1,1,3-Trimethyl-5-(2-chlorophenyl)biuret] | 0/4 |  |  | 37.5 | 66 | ED50 ([2]; Mus musculus, oral, Δ mark, range in parentheses): 135 mg/kg
CN(C)C(=O)N(C)C(=O)Nc1ccc(Cl)cc1Cl [compound 13, 1,1,3-Trimethyl-5-(2,4-dichlorophenyl)biuret] | 3/4 | 0/4 | 50 | 75 | 42 | 
CN(C)C(=O)N(C)C(=O)Nc1ccc(Cl)c(Cl)c1 [compound 14, 1,1,3-Trimethyl-5-(3,4-dichlorophenyl)biuret] | 3/4 | 1/4 | 50 | 62.5 | 43 | 
CN(C)C(=O)N(C)C(=O)Nc1c(Cl)cccc1Cl [compound 15, 1,1,3-Trimethyl-5-(2,6-dichlorophenyl)biuret] |  |  | 50 | 50 | 29 | 
CN(C)C(=O)N(C)C(=O)Nc1ccc(N(C)C)cc1 [compound 19, 1,1,3-Trimethyl-5-(4-dimethylaminophenyl)biuret] | 0/4 |  | 62.5 | 50 | 26 | 
CN(C)C(=O)N(C)C(=O)Nc1ccc(O)cc1 [compound 21, 1,1,3-Trimethyl-5-(4-hydroxyphenyl)biuret] | 3/4 | 0/4 |  |  |  | inhibition in vivo at 100 mg/kg ([2]; Mus musculus, po): 37.5%; inhibition in vivo at 100 mg/kg [3]: 12.5%
COc1ccccc1NC(=O)N(C)C(=O)N(C)C [compound 22, 1,1,3-Trimethyl-5-(2-methoxyphenyl)biuret] | 2/4 | 0/4 | 37.5 |  | 13 | inhibition in vivo at 100 mg/kg [3]: 50%
COc1ccc(NC(=O)N(C)C(=O)N(C)C)cc1OC [compound 24, 1,1,3-Trimethyl-5-(3,4-dimethoxyphenyl)biuret] | 4/4 | 0/4 | 75 | 62.5 | 18 | 
Cc1cccc(NC(=O)N(C)C(=O)N(C)C)c1C [compound 29, 1,1,3-Trimethyl-5-(2,3-dimethylphenyl)biuret] | 4/4 | 1/4 |  | 25 | 40 | 
Cc1cccc(C)c1NC(=O)N(C)C(=O)N(C)C [compound 31, 1,1,3-Trimethyl-5-(2,6-dimethylphenyl)biuret] |  |  | 75 | 37.5 | 69 | 
CSc1ccc(NC(=O)N(C)C(=O)N(C)C)cc1 [compound 34, 1,1,3-Trimethyl-5-(4-methylthiophenyl)biuret] | 4/4 | 0/4 | 50 |  |  | 
CCCCNC(=O)N(C(=O)N(C)C)c1ccccc1 [compound 40] | 1/4 | 0/4 |  |  |  | inhibition in vivo at 200 mg/kg ([2]; Mus musculus, po): 62.5%; inhibition in vivo at 100 mg/kg [3]: 62.5%
CNC(=O)N(C)C(=O)N(c1ccccc1)c1ccccc1 [compound 65, 1,1-Diphenyl-3,5-dimethylbiuret] | 4/4 | 1/4 |  |  |  | inhibition in vivo at 100 mg/kg ([2]; Mus musculus, po): 12.5%; inhibition in vivo at 100 mg/kg [3]: 50%
CN(C(=O)Nc1ccccc1)C(=O)N1CCCC1 [compound 68, 1,1-Tetramethylene-3-methyl-5-phenylbiuret] |  |  |  |  | 24 | Acute toxicity: death number of mice/number of mice tested ([1]; mouse, in vivo): 2/4; inhibition in vivo at 100 mg/kg ([2]; Mus musculus, po): 75%
O=C(NC(=O)N1CCCCC1)Nc1ccccc1 [compound 69, 1,1-Pentamethylene-5-phenylbiuret] | 0/4 |  |  |  |  | inhibition in vivo at 200 mg/kg ([2]; Mus musculus, po): 50%; ED50 [3]: 115 mg/kg
CNC(=O)N(C)C(=O)N1CCOCC1 [compound 72, 1,1-(3-Oxapentamethylene)-3,5-dimethylbiuret] | 0/4 |  |  |  |  | inhibition in vivo at 100 mg/kg ([2]; Mus musculus, po): 50%; inhibition in vivo at 100 mg/kg [3]: 25%
